Laboratory results reported in patent US4015974A, “Amido phosphorothiolates” (priority 1972, dated 1977).

Legend:
Assay type in all cases: in vivo
[1] = test system: common lambsquarter (Chenopodium album); test: Pre-emergence application, herbicidal effect on common lambsquarter (Table 1); parameters: key: 0: not damaged; 5: completely killed; conditions: 20 days after application, score 0-5
Excerpt: (§1) Seeds of barnyard grass (Echinochloa crus-galli) and large crabgrass (Digitaria sanguinalis) as representatives of grassy weeds and those of radish, redroot pigweed (Amaranthus retroflexus), common purslane (Portulaca oleracea) and common lambsquarter (Chenopodium album) as representatives of broad-leaved weeds were individually sowed in flower pots of about 10 cm. in diameter. After covering the seeds with soil, test compounds as shown in Table 1 were individually applied to the soil treatment. Thereafter the plants were grown in a green house and 20 days after application the herbicidal effects of the compounds were observed, the results of which are as shown in Table 1.
(§2) Herbicidal effects were evaluated by the numerals ranging from 0 (not damaged) to 5 (completely killed). All the test compounds were used in the form of wettable powder and diluted with water before application.

[2] = test system: large crabgrass (Digitaria sanguinalis); test: Pre-emergence application, herbicidal effect on large crabgrass (Table 1); parameters: key: 0: not damaged; 5: completely killed; conditions: 20 days after application, score 0-5
Excerpt: as §1, §2

[3] = test system: common purslane (Portulaca oleracea); test: Pre-emergence application, herbicidal effect on common purslane (Table 1); parameters: key: 0: not damaged; 5: completely killed; conditions: 20 days after application, score 0-5
Excerpt: as §1, §2

radish = test: Pre-emergence application, herbicidal effect on radish (Table 1); parameters: key: 0: not damaged; 5: completely killed; conditions: 20 days after application, score 0-5
Excerpt: as §1, §2

rice = test: Water application, phytotoxicity on rice (Table 2); parameters: key: 0: no effect; 1: very slightly affected; 2: slightly affected; 3: moderately affected; 4: considerably affected; 5: completely killed; conditions: 25 days, score 0-5
Excerpt: (§3) Wagner pots of 14 cm. in diameter, which had been packed with 1.5 kg. of paddy field soil, were brought into the state of paddy fields. To the pots were transplanted rice seedlings at the 3-leave stage. Further, seeds of barnyard grass (Echinochloa crus-galli) were sowed in the pots and required amounts of test compounds were applied to the soil under water lodged condition. 25 days after application, the degrees of herbicidal activity and phytotoxity were investigated on above-mentioned plants which had been transplanted and sowed, and on broad-leaved weeds, e.g., monochoria (Monochoria viaginalis Presl.), false pimpernel (Linderna pyxidaria) and toothcup (Rotala indica Koehue), which had been spontaneously germinated. The test compounds were used in the form of wettable powder. The herbicidal effects and the phytotoxity were evaluated as follows by the numerals ranging from 0 to 5.

[4] = test system: barnyard grass (Echinochloa crus-galli); test: Water application, herbicidal effect on barnyard grass (Table 2); parameters: key: 0: not damaged; 5: completely killed; conditions: 25 days, score 0-5
Excerpt: as §3

[5] = test system: barnyard grass (Echinochloa crus-galli); test: Pre-emergence application, herbicidal effect on barnyard grass (Table 1); parameters: key: 0: not damaged; 5: completely killed; conditions: 20 days after application, score 0-5
Excerpt: as §1, §2

[6] = test system: broad-leaved weeds, e.g., monochoria, false pimpernel and toothcup; test: Water application, herbicidal effect on broad-leaved weeds (Table 2); parameters: key: 0: not damaged; 5: completely killed; conditions: 25 days, score 0-5
Excerpt: as §3

[7] = test system: redroot pigweed (Amaranthus retroflexus); test: Pre-emergence application, herbicidal effect on redroot pigweed (Table 1); parameters: key: 0: not damaged; 5: completely killed; conditions: 20 days after application, score 0-5
Excerpt: as §1, §2

SMILES	Herbicidal effect, common lambsquarter ([1]; 10 g./a.)	Herbicidal effect, common lambsquarter ([1]; 20 g./a.)	Herbicidal effect, common lambsquarter ([1]; 40 g./a.)	Herbicidal effect, large crabgrass ([2]; 10 g./a.)	Herbicidal effect, large crabgrass ([2]; 20 g./a.)	Herbicidal effect, large crabgrass ([2]; 40 g./a.)	Herbicidal effect, common purslane ([3]; 10 g./a.)	Herbicidal effect, common purslane ([3]; 20 g./a.)	Herbicidal effect, common purslane ([3]; 40 g./a.)	Herbicidal effect, radish (radish; 10 g./a.)	Herbicidal effect, radish (radish; 20 g./a.)	Herbicidal effect, radish (radish; 40 g./a.)	Phytotoxicity on rice (rice; 10 g/a)	Phytotoxicity on rice (rice; 20 g/a)	Phytotoxicity on rice (rice; 40 g/a)	Herbicidal effects, barnyard grass ([4]; 10 g/a)	Herbicidal effects, barnyard grass ([4]; 20 g/a)	Herbicidal effects, barnyard grass ([4]; 40 g/a)	Herbicidal effect, barnyard grass ([5]; 10 g./a.)	Herbicidal effect, barnyard grass ([5]; 20 g./a.)	also measured
CCOP(=O)(SCCC(C)C)SCC(=O)N1CCCC(C)C1 (stereo not drawn) [Compound 73]	4	4	5	5	5	5	4	4	5	0	0	0	0	0	0	5	5	5	5	5	Herbicidal effect, barnyard grass ([5]; 40 g./a.): 5; Herbicidal effects, broad-leaved weeds ([6]; 10 g/a): 5; Herbicidal effects, broad-leaved weeds ([6]; 20 g/a): 5; Herbicidal effects, broad-leaved weeds ([6]; 40 g/a): 5; Herbicidal effect, redroot pigweed ([7]; 10 g./a.): 4; Herbicidal effect, redroot pigweed ([7]; 20 g./a.): 4; Herbicidal effect, redroot pigweed ([7]; 40 g./a.): 5
CCOP(=O)(SC)SCC(=O)N1CCCCC1CC (stereo not drawn) [Compound 74]	5	5	5	5	5	5	5	5	5	0	1	2	0	0	0	5	5	5	5	5	Herbicidal effect, barnyard grass ([5]; 40 g./a.): 5; Herbicidal effects, broad-leaved weeds ([6]; 10 g/a): 5; Herbicidal effects, broad-leaved weeds ([6]; 20 g/a): 5; Herbicidal effects, broad-leaved weeds ([6]; 40 g/a): 5; Herbicidal effect, redroot pigweed ([7]; 10 g./a.): 5; Herbicidal effect, redroot pigweed ([7]; 20 g./a.): 5; Herbicidal effect, redroot pigweed ([7]; 40 g./a.): 5
CCOP(=O)(SCC)SCC(=O)N1CCCCC1CC (stereo not drawn) [Compound 75]	5	5	5	5	5	5	5	5	5	0	1	2	0	0	1	5	5	5	5	5	Herbicidal effect, barnyard grass ([5]; 40 g./a.): 5; Herbicidal effects, broad-leaved weeds ([6]; 10 g/a): 5; Herbicidal effects, broad-leaved weeds ([6]; 20 g/a): 5; Herbicidal effects, broad-leaved weeds ([6]; 40 g/a): 5; Herbicidal effect, redroot pigweed ([7]; 10 g./a.): 5; Herbicidal effect, redroot pigweed ([7]; 20 g./a.): 5; Herbicidal effect, redroot pigweed ([7]; 40 g./a.): 5
CCOP(=O)(SCC(=O)N1CCCCC1CC)SC(C)C (stereo not drawn) [Compound 76]	5	5	5	5	5	5	5	5	5	0	1	2	0	0	0	5	5	5	5	5	Herbicidal effect, barnyard grass ([5]; 40 g./a.): 5; Herbicidal effects, broad-leaved weeds ([6]; 10 g/a): 5; Herbicidal effects, broad-leaved weeds ([6]; 20 g/a): 5; Herbicidal effects, broad-leaved weeds ([6]; 40 g/a): 5; Herbicidal effect, redroot pigweed ([7]; 10 g./a.): 5; Herbicidal effect, redroot pigweed ([7]; 20 g./a.): 5; Herbicidal effect, redroot pigweed ([7]; 40 g./a.): 5
